This experiment concerns the target T1, Glucocorticoid receptor (Homo sapiens, UniProt P04150).
T1 sequence (P04150 whole entry): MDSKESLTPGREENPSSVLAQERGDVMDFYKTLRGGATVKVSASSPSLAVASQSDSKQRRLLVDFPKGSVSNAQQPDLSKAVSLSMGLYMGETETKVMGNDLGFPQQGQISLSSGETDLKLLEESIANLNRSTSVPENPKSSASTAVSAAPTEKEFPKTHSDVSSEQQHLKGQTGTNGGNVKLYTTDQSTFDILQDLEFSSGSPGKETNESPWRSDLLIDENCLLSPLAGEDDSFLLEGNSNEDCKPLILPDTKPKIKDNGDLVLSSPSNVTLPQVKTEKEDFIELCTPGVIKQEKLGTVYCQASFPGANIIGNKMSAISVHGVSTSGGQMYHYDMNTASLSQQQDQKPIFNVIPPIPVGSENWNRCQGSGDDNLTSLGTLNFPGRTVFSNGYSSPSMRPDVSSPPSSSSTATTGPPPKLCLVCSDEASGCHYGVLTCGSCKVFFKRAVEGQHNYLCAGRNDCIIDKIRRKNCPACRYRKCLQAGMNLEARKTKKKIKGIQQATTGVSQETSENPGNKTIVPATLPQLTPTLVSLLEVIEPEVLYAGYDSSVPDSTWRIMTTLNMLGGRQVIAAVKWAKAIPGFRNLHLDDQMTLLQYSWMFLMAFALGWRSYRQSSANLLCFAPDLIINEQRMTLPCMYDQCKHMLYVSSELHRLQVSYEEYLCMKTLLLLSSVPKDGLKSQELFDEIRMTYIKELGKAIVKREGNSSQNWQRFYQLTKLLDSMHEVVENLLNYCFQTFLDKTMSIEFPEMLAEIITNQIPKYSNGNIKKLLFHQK
Briefly: Binding affinity at GR.

Molecules are shown by their SMILES. pIC50: −log10 of the molar value.

Our source for the IC50 values is ChEMBL document CHEMBL1139115, “Thyroid receptor ligands. Part 7: Indirect antagonists of the thyroid hormone receptor with improved affinity” (Bioorg Med Chem Lett, 2007).

Molecule `O=C(O)CCc1cc(Br)c(OCc2cccc(Br)c2)c(Br)c1` gave a negative logarithm of the IC50 (pIC50) of 4.85.
